According to US4677069A, “Clam derived proteinases” (priority 1984, dated 1987):
Structures can show the parent of a compound that is named as a salt. *1 amine or outer side, *2 acyl side, *3 side chain or, on linkers, in order; H or OH if unused. Where a SMILES comes first, the peptide text is derived from it. [ ]: non-standard residue; d: D form. The star is where a group is joined. Sta = CC(C)C[C@H](N)[C@@H](O)CC(=O)O; Isovaleryl = CC(C)CC(=O)*; CO = O=C([*:1])[*:2]

B1: Gastricin: carboxyl proteinase, stomach (protein, UniProt P20142 60-388, looked up)
Gastricsin: SVTYEPMAYMDAAYFGEISIGTPPQNFLVLFDTGSSNLWVPSVYCQSQACTSHSRFNPSESSTYSTNGQTFSLQYGSGSLTGFFGYDTLTVQSIQVPNQEFGLSENEPGTNFVYAQFDGIMGLAYPALSVDEATTAMQGMVQEGALTSPVFSVYLSNQQGSSGGAVVFGGVDSSLYTGQIYWAPVTQELYWQIGIEEFLIGGQASGWCSEGCQAIVDTGTSLLTVPQQYMSALLQATGAQEDEYGQFLVNCNSIQNLPSLTFIINGVEFPLPPSSYILSNNGYCTVGVEPTYLSSQNGQPLWILGDVFLRSYYSVYDLGNNRVGFATAA

How the values were obtained:
PI & II [1] = assay: Inhibitor effect on proteolytic activity of PI & II; type: biochemical, surf clam, Spisula solidissima
Description: All inhibitors were from Sigma Co. (St. Louis, MO). The stock solutions were prepared by dissolving the inhibitors either in water or dimethyl sulfoxide (DMSO) as following:
(§1) Water--Leupeptin hemisulfate (60 ug/ml), Antipain (60 ug/ml), Poly-L-lysine(60 mg/ml), soybean trypsin inhibitor (60 mg/ml), ovomucoid trypsin inhibitor (60 mg/mL), Tosyl-lysine chloromethyl ketone (TLCK, 60 mM) and iodoacetamide (60 mM).
(§2) DMSO--Pepstatin (60 ug/ml), Tosyl-phenylalanine chloromethyl ketone (TPCK, 60 mM), Phenylmethanesulphonylfluoride (PMSF, 60 mM), and Diazoacetylnorleucine methyl ester (DNME, 60 mM).

PIII [2] = assay: Inhibitor effect on proteolytic activity of PIII; type: biochemical, surf clam, Spisula solidissima
Description: The effect of inhibitors on proteolytic activity was determined by preincubating a mixture of inhibitor stock solution (0.05 ml), 0.2M citrate-phosphate buffer at pH 2.8 (1.7 ml) and enzyme solution (0.25 ml) for 10 min at room temperature before the addition of substrate. All inhibitors were from Sigma Co. (St. Louis, MO). The stock solutions were prepared by dissolving the inhibitors either in water or dimethyl sulfoxide (DMSO) as following:
as §1, §2

PI & II [3] = assay: Heavy metal effect on proteolytic activity of PI & II; type: biochemical, surf clam, Spisula solidissima; settings: for PI & II % Retention / PI & II Activity (HU/ml): metal ions 0.5 mM, pH 2.8; for PI & II Activity (HU/ml): control 214.7
Description: (§3) The effect of heavy metals on proteolytic activity was determined by preincubating a mixture of 5 mM heavy metal stock solution (0.3 ml), 0.2M citrate-phosphate buffer at pH 2.8 (1.6 ml) and enzyme solution (0.1 ml) at room temperature for 10 min before the addition of substrate. All stock solutions of metals were made from chloride salts, except that silver was prepared from the nitrate salt.

PIII [4] = assay: Heavy metal effect on proteolytic activity of PIII; type: biochemical, surf clam, Spisula solidissima; settings: for effect of metal ion on PIII: general assay procedure; for PIII % Retention / PIII Activity (HU/ml): metal ions 0.5 mM, pH 2.8; for PIII Activity (HU/ml): control 258.7
Description: as §3

[5] = cited from earlier work; for Optimum pH: Table 7, literature
[6] = Milk clotting time determination; type: biochemical
Description: (§4) The clotting activity of milk coagulants was determined according to the method of Berridge, with modifications (1952, The Analyst, 77: 57). To 0.05 ml (unless otherwise mentioned) of milk coagulant placed in a 25-ml test tube was added 10 ml of tempered substrate solution. The substrate solution was 10% reconstituted skim milk powder containing 10 mM CaCl2. The pH of this substrate solution was approximately 6.2. Where indicated, the pH of the substrate solution was adjusted with 0.5 N NaOH or HCl while agitating. The mixture of coagulant and substrate was then incubated at 30° C. water bath unless specifically indicated. Near the expected clotting time, which was determined by a preliminary test, the test tube was tilted ~60° at an interval of 5 seconds. The moment of the first flake appearance of the liquid flowing down the tube was recorded as milk clotting time.

casein = assay: Relative ratio of clotting to proteolytic activity, casein; type: biochemical; settings: 30° C., pH 6.2 of milk clotting assay, calf rennet = 1.00
Description: as §4
(§5) Milk coagulants were assayed for proteolytic activity according to the method described in Example 1.
(§6) The ratio of milk clotting activity to proteolytic activity against hemoglobin is often used to assess the suitability of enzymes as rennet substitute (Green, 1972, supra). Clam rennet had considerably lower ratio of clotting to […] activity at optimum pH of each individual enzyme. […]

Hemoglobin [7] = assay: Relative ratio of clotting to proteolytic activity, hemoglobin; type: biochemical; settings: 30° C., optimum pH of each enzyme (in parentheses), calf rennet = 1.00
Description: as §4, §5, §6

Hemoglobin [8] = settings: pH 2.0, 37° C., Sigma lot; cited from earlier work
P2.2 enzyme = assay: Stabilization of P2.2 activity with reducing and chelating agents; settings: EDTA or cysteine alone
[9] = 1 ug/ml, pH 2.8, 10 min preincubation

Row | Molecule | PI & II % Retention (PI & II [3]) | PI & II Activity (HU/ml) (PI & II [3]) | PIII % Retention (PIII [4]) | PIII Activity (HU/ml) (PIII [4]) | Optimum pH [5] | also measured
1 | CC(=O)N[C@@H](CC(C)C)C(=O)N[C@@H](CC(C)C)C(=O)N[C@H](C=O)CCCNC(=N)N [Leupeptin hemisulfate] |  |  |  |  |  | % Residual activity PI & II, final conc. 1 ug/ml (PI & II [1]; [9]): 96.5%; effect of inhibitor on PIII (PIII [2]): inhibited; % Residual activity PIII, final conc. 1 ug/ml (PIII [2]; [9]): 33.4%
2 | [Cu+2] [Cu++] | 95.7% | 205.4 HU/ml | 18.0% | 46.7 HU/ml |  | effect of cupric ion on PI&II at or below 1 mM (PI & II [3]; at or below 1 mM cupric ion): not sensitive; effect of cupric ion on PIII at 1 mM (PIII [4]; 1 mM cupric ion): Almost total inactivation; effect of metal ion on PIII (PIII [4]): very sensitive
3 | NC(=O)CI [Iodoacetamide] |  |  |  |  |  | % Residual activity PI & II, final conc. 1 mM (PI & II [1]; pH 2.8, 10 min preincubation): 98.9%; effect of inhibitor on PIII (PIII [2]): inhibited; % Residual activity PIII, final conc. 1 mM (PIII [2]; pH 2.8, 10 min preincubation): 78.3%
4 | [Hg+2] [Hg++] | 87.1% | 187.0 HU/ml | 0.0% | 0.0 HU/ml |  | effect of metal ion on PIII (PIII [4]): extremely sensitive
5 | Cathepsin G |  |  |  |  | ~ 7.5 | 
6 | [Sn+2] [Sn++] | 88.8% | 190.6 HU/ml | 83.7% | 216.5 HU/ml |  | effect of metal ion on PIII (PIII [4]): inhibits PIII slightly
7 | [Pb+2] [Pb++] | 99.7% | 214.0 HU/ml | 96.9% | 250.7 HU/ml |  | effect of metal ion on PIII (PIII [4]): didn't inhibit; PIII activity detected, addition order of buffer and inhibitor solution reversed (PIII [4]; reversed addition order): 20.7%
8 | Urokinase |  |  |  |  | 7.5-7.6 | 
9 | [Zn+2] [Zn++] | 90.4% | 194.0 HU/ml | 103.1% | 266.7 HU/ml |  | 
10 | Porcine pepsin: two-time crystallized and lyophilized powder of porcine pepsin (Sigma Co.) |  |  |  |  |  | Linear regression X-Intercept (Table 17) ([6]; 1/tc vs C, equation 3-3): 0.0019; Linear regression Y-Intercept (Table 17) ([6]; 1/tc vs C, equation 3-3): -0.00013; Linear regression Slope (Table 17) ([6]; 1/tc vs C, equation 3-3, FIG. 7): 0.06597; Linear regression Slope (Table 16) ([6]; clotting time tc vs 1/C, equation 3-2): 16.5; milk clotting at pH 6.8 or above ([6]; milk pH 6.8 or above): unable to clot milk; Linear regression X-Intercept (Table 16) ([6]; tc vs 1/C, equation 3-2): 1.9; Linear regression Y-Intercept (Table 16) ([6]; tc vs 1/C, equation 3-2): -8.7; relative ratio of clotting to proteolytic activity, Casein (casein): 0.24; relative ratio of clotting to proteolytic activity, Hemoglobin (Hemoglobin [7]): 0.30; specification of the pepsin lot (Hemoglobin [8]): 2900 units/mg solid
11 | Cc1ccc(S(=O)(=O)NC(Cc2ccccc2)C(=O)CCl)cc1 (stereo not drawn) [TPCK, tosylphenylalanine chloromethyl ketone] |  |  |  |  |  | % Residual activity PI & II, final conc. 1 mM (PI & II [1]; pH 2.8, 10 min preincubation): 96.4%; effect of inhibitor on PIII (PIII [2]): inhibited; % Residual activity PIII, final conc. 1 mM (PIII [2]; pH 2.8, 10 min preincubation): 21.2%
12 | [Co+2] [Co++] | 96.9% | 208.0 HU/ml | 90.7% | 234.7 HU/ml |  | 
13 | [Cd+2] [Cd++] | 96.3% | 206.7 HU/ml | 96.4% | 249.4 HU/ml |  | 
14 | Poly-L-lysine |  |  |  |  |  | % Residual activity PI & II, final conc. 1 ug/ml (PI & II [1]; pH 2.8): 99.3%; % Residual activity PIII, final conc. 1 ug/ml (PIII [2]; pH 2.8): 101.1%
15 | CCCC[C@H](NC(=O)C=[N+]=[N-])C(=O)OC [DNME, diazoacetylnorleucine methyl ester] |  |  |  |  |  | % Residual activity PI & II, final conc. 1 mM (PI & II [1]; pH 2.8, 10 min preincubation): 100.0%; effect of DNME on PI&II in the presence of cupric ions (PI & II [1]; with cupric ions, up to 4 hours of preincubation): not sensitive; effect of inhibitor on PIII (PIII [2]): very sensitive; % Residual activity PIII, final conc. 1 mM (PIII [2]; pH 2.8, 10 min preincubation): 64.9%
16 | Cl.N[C@@H](CS)C(=O)O [Cysteine-HCl] |  |  |  |  |  | optimum concentration for stabilizing P2.2, reagent alone (P2.2 enzyme): 2.5 mM
17 | Cc1ccc(S(=O)(=O)NC(CCCCN)C(=O)CCl)cc1 (stereo not drawn) [TLCK, tosyllysine chloromethyl ketone] |  |  |  |  |  | % Residual activity PI & II, final conc. 1 mM (PI & II [1]; pH 2.8, 10 min preincubation): 96.2%; effect of inhibitor on PIII (PIII [2]): inhibited; % Residual activity PIII, final conc. 1 mM (PIII [2]; pH 2.8, 10 min preincubation): 16.8%

Row | Molecule | PI & II % Retention (PI & II [3]) | PI & II Activity (HU/ml) (PI & II [3]) | PIII % Retention (PIII [4]) | PIII Activity (HU/ml) (PIII [4]) | Optimum pH [5] | also measured
18 | cathepsin L: thiol proteinase, liver |  |  |  |  | 5.0-5.5 | 
19 | [Ni+2] [Ni++] | 96.0% | 206.0 HU/ml | 92.5% | 239.4 HU/ml |  | 
20 | Trypsin |  |  |  |  | ~ 8.0 | 
21 | Chymotrypsin |  |  |  |  | ~ 8.0 | 
22 | CC(C)[C@H](NC(=O)[C@H](CCCNC(=N)N)NC(=O)N[C@@H](Cc1ccccc1)C(=O)O)C(=O)N[C@H](C=O)CCCNC(=N)N [Antipain di-HCl] ({Phe-CO}-Arg-Val-Arg-aldehyde) |  |  |  |  |  | % Residual activity PI & II, final conc. 1 ug/ml (PI & II [1]; [9]): 102.9%; % Residual activity PIII, final conc. 1 ug/ml (PIII [2]; [9]): 89.7%
23 | CC(C)CC(=O)N[C@H](C(=O)N[C@H](C(=O)N[C@@H](CC(C)C)[C@@H](O)CC(=O)N[C@@H](C)C(=O)N[C@@H](CC(C)C)[C@@H](O)CC(=O)O)C(C)C)C(C)C [Pepstatin] (Isovaleryl-VV[Sta]A[Sta]-OH) |  |  |  |  |  | effect of inhibitor on PI&II (PI & II [1]): strongly inhibited; % Residual activity PI & II, final conc. 1 ug/ml (PI & II [1]; [9]): 25.0%; % Residual activity PIII, final conc. 1 ug/ml (PIII [2]; [9]): 99.4%
24 | Kallikrein |  |  |  |  | 8.6-8.8 | 
25 | O=S(=O)(F)Cc1ccccc1 [PMSF, phenylmethanesulphonylfluoride] |  |  |  |  |  | % Residual activity PI & II, final conc. 1 mM (PI & II [1]; pH 2.8, 10 min preincubation): 102.2%; effect of inhibitor on PIII (PIII [2]): inhibited; % Residual activity PIII, final conc. 1 mM (PIII [2]; pH 2.8, 10 min preincubation): 53.5%
26 | Elastase |  |  |  |  | 8.2-8.5 | 
27 | [Mg+2] [Mg++] | 98.5% | 211.4 HU/ml | 98.2% | 254.0 HU/ml |  | 
28 | Cathepsin D: mammalian carboxyl proteinase, literature comparator |  |  |  |  | 2.8-5.0 | Activators, mammalian cathepsins ([5]; Table 11, literature): none; Temperature optima, mammalian cathepsins ([5]; Table 11, literature): 45 °C; pH optima hemoglobin, mammalian cathepsins ([5]; Table 11, literature): 2.8-3.5; pH stability, mammalian cathepsins ([5]; unstable at pH > 7, literature): unstable
29 | [Ca+2] [Ca++] | 97.5% | 209.4 HU/ml | 99.2% | 256.7 HU/ml |  | 
30 | [Ag+] [Ag+] | 102.2% | 219.3 HU/ml | 95.0% | 245.8 HU/ml |  | 
31 | Renin |  |  |  |  | 5.5-8.0 | 
32 | O=C(O)CN(CCN(CC(=O)O)CC(=O)O)CC(=O)O [Na2 --EDTA] |  |  |  |  |  | optimum concentration for stabilizing P2.2, reagent alone (P2.2 enzyme): 10 mM
33 | Pepsin |  |  |  |  | 1.7-2.0 | General proteolysis ([5]; Table 7, graded + to +++, literature): ++ +
34 | B1 |  |  |  |  | 3.0 | 
